From patent EP4205733B1, “COMPOSITION FOR THE TREATMENT OF OSTEOPENIA AND OSTEOPOROSIS” (MIVELL S.R.L.S., priority 2021, dated 2023)

What was measured:
[1] = tested on: IL-1β; assay: RTqPCR of mRNA levels of inflammatory cytokine IL-1β; type: cell-based, human; conditions: senescent BM-MSCs, 48h, vs untreated senescent BM-MSCs
Protocol: (§1) The experiments were conducted on mesenchymal stromal cells obtained from the bone marrow of a donor: BM-MSCs (Promocell). BM-MSCs were cultured in medium maintenance MSC-GM2 (PromoCell) with the addition of Supplement Mix and Penicillin-Streptomycin 1%, in humid atmosphere at 37°C, with 5% CO2. The proliferative capacity of this cell model was evaluated and characterized and the cellular senescence was assessed using p16, p21 expression and beta-galactosidase activity (data not shown). […]
(§2) The anti-inflammatory activity of the individual ingredients and the synergy between them have been assessed by the measurement of mRNA levels of the cytokines involved in inflammatory processes: IL-1β, IL-6, IL-8 and MCP-1 [Lencel et al., 2011; Mulholland et al., 2019]. […]
(§3) The pro-osteogenic activity of the individual components (pro-mineralizing and anti-inflammatory) and their combination was firstly determined through the analysis of the modulation of the mRNA levels of the osteogenic marker COL1α1 in young BM-MSCs cells. […] Furthermore, the pro-mineralizing and anti-inflammatory activity of the individual components and their combination was determined through the analysis of the modulation of the mRNA levels of the osteogenic marker ALP and of the pro-inflammatory markers IL-1β and MCP-1 in senescent BM-MSCs cells. […]

[2] = tested on: MCP-1; assay: RTqPCR of mRNA levels of inflammatory cytokine MCP-1; type: cell-based, human; conditions: senescent BM-MSCs, 48h, vs untreated senescent BM-MSCs
Protocol: as §1, §2, §3

[3] = Solubility test; type: physicochemical
Description: Before proceeding with the cellular assays, the two ingredients have been tested for their solubility in several solvents, with the aim of identifying the best solubilizing agent (Table 2).

Solubility test results: Organic solvents ([3]; organic solvents) | Solubility test results: Cremophor ([3]; solvent Cremophor) | Solubility test results: DMSO ([3]; solvent DMSO) | Solubility test results: PBS ([3]; solvent PBS) | SMILES | IL-1β mRNA levels [1] | MCP-1 mRNA levels [2]
– | – | – | – | OC[C@H]1O[C@@H](Oc2cc(O)cc(/C=C/c3ccc(O)cc3)c2)[C@H](O)[C@@H](O)[C@@H]1O [polydatin] | significantly decrease | significantly decrease
Not soluble | Soluble | Not soluble | Not soluble | CC(C)=CCC/C(C)=C/CC/C(C)=C/CC/C(C)=C/CC/C(C)=C/CC/C(C)=C/CC/C(C)=C/CC1=C(C)C(=O)c2ccccc2C1=O [Vitamin K2, Menaquinone-7] | – | –
